≈ marks a conversion by molar mass, not a printed value.
Experiments:
[1] = tested on: HSV-1; experiment: Inhibition of HSV-1 replication (anti-viral effect), PFU determination; assay type: cell-based; conditions: Human alphaherpesvirus 1; HSV-1 replication in CV-1 cells, 10 PFU per cell, 24 hours after infection
Experimental: 16mm dia. wells are seeded each with 2 x 10⁵ CV-1 cells in 1ml aliquots of MEM10C. After three days, the cells are infected with HSV-1 at 10 PFU (Plaque Forming Units) per cell. The inoculum is replaced, after adsorption for 1.5 hours, in pairs of wells with 0. 5 ml aliquots of MEM5C containing the test concentrations of each of AH-1 and AH-2. Four hours from infection, the cells from two wells are scraped into the medium and frozen to -80°C. [The average of PFU/ml of these samples forms the base for calculating net virus production]. The remaining samples are collected in pairs of wells 24 hours after infection and are also frozen to -80°C. For determination of PFU/ml, each sample is diluted to 10⁻⁸.

[2] = tested on: CV-1 cells; experiment: Inhibition of growth of CV-1 cells (cytotoxic effect); assay type: cell-based, monkey; conditions: for inhibition of growth: CV-1 cells, 0.1, 0.5, 1, 5, 10 and 50 µg/ml; for IC50: Primates, 96 h, CV-1 cell growth, counted four days after seeding
Experimental: CV-1 cells are seeded into 16 mm dia. wells at 10⁴ cells per well in 1ml aliquots of MEM10C. The following day, the medium is replaced with 0.5 ml aliquots of MEM10C containing the test concentrations of compounds AH-1 and AH-2, i. e. 0, 0.1, 0.5, 1, 5, 10 and 50 µg/ml. Determinations are all carried out in duplicate. Four days after seeding, the cells are trypsinised and counted. Percentage inhibition (%I) relative to the wells without test compound (i.e. the controls) is calculated and the IC₅₀ determined.

[3] = tested on: HSV-1; experiment: Viral plaque reduction in HSV-1 infected CV-1 cells (Table 3); assay type: cell-based; design: key: (-) indicates no reduction in viral plaque production; (+) indicates a 50% reduction in viral plaque production; (++) indicates an 80% reduction in viral plaque production
Experimental: (§1) This test is performed according to standard procedures for determination of cytotoxicity of a compound againt virus infected cells. In the present case, CV-1 (monkey kidney fibroblast cells) are infected with HSV-1 and the compounds of the invention tested against these at varying concentrations.
(§2) The numbers show the toxicity throughout the CV-1 cells sheet. (-) indicates no reduction in viral plaque production (+) indicates a 50% reduction in viral plaque production (++) indicates an 80% reduction in viral plaque production.

[4] = tested on: CV-1 (monkey kidney fibroblast cells); experiment: Toxicity throughout the CV-1 cell sheet (Table 3); assay type: cell-based
Experimental: as §1, §2

[5] = tested on: L-1210 cells (mouse lymphoma); experiment: Activity against L-1210 cells; assay type: cell-based
[6] = tested on: VSV (Vesicular Stomatitis Virus); assay type: cell-based

Structure (SMILES)	IC50 [1]	inhibition of growth [2]	IC50 [2]	reduction in viral plaque production ([3]; 5µl of 500µg/ml in MeOH/Acet)	reduction in viral plaque production ([3]; 10µl of 500µg/ml in MeOH/Acet)	reduction in viral plaque production ([3]; 20µl of 500µg/ml in MeOH/Acet)	reduction in viral plaque production ([3]; 40µl of 500µg/ml in MeOH/Acet)	toxicity throughout the CV-1 cells sheet ([4]; 5µl of 500µg/ml in MeOH/Acet)	toxicity throughout the CV-1 cells sheet ([4]; 10µl of 500µg/ml in MeOH/Acet)	toxicity throughout the CV-1 cells sheet ([4]; 20µl of 500µg/ml in MeOH/Acet)	toxicity throughout the CV-1 cells sheet ([4]; 40µl of 500µg/ml in MeOH/Acet)	activity against L-1210 cells [5]	activity against VSV [6]
Cc1c2c(c3c4c1C(C1OC1(C)C)CC(C)C4CCC3C)OCO2 (centres unmarked) [AH-1, Helioporin A]	4 µg/mL (≈ 12.2 µM)	no inhibition of growth	> 50 µg/mL	-	-	+ ((+) indicates a 50% reduction in viral plaque production)	++ ((++) indicates an 80% reduction in viral plaque production)	0	0	0	0	no activity	no activity
Cc1cc2c(c3c1OCO3)C(C)CCC2C(C)CC(=O)CC(C)C (centres unmarked) [AH-2, Helioporin B]	1.6 µg/mL (≈ 4.84 µM)	no inhibition of growth	> 50 µg/mL	-	-	+ ((+) indicates a 50% reduction in viral plaque production)	++ ((++) indicates an 80% reduction in viral plaque production)	0	0	0	0	no activity	no activity

From EP0432983A2 (priority 1989, dated 1991)
